{
  "source": "patent US20190105194A1",
  "about": "“METHODS OF TREATING A SUBJECT WITH AN OCULAR CONDITION RESPONSIVE TO STEROID THERAPY” (Aciont Inc., priority 2017, published 2019)",
  "key": {"[1]": {"system": "rabbit coronary microvessel endothelium", "conditions": "cited from earlier work"}, "[2]": {"conditions": "in vivo", "experimental": "(§1) For the toxicokinetic study, there were four groups of rabbit. […] Blood was collected and processed for plasma at predose, 5, 30, 60, 120, 240, and 360 minutes, and 24, 48, 72, 96, and 168 hours after administration.\n(§2) Approximately 1 mL of blood was collected by direct venipuncture of the jugular vein with a 3 mL syringe and 21 GA×1″ needle. Blood was immediately transferred into anticoagulant (potassium EDTA) coated microcentrifuge tubes. Blood was then centrifuged for five minutes at 3000×G at 4° C. Plasma was immediately separated into another microcentrifuge tube then kept in −20° C. freezer for LC-MS analysis.\n(§3) Briefly, the samples were assayed by Shimadzu SCL-10A controller with LC-10AD pump. The mobile phase was 50% by volume of 10 mM ammonium acetate and 50% by volume of methanol. The HPLC column was a)(Bridge Phenyl column, 5 μm, 50×2.0 mm. An isocratic elution was applied at 0.500 mL/min flow rate and column temperature was 30° C. […] The injection volume was 10 μL. […] The limit of quantitation (LOQ) of this method was 1 ng/mL.\n(§4) Toxicokinetic data analysis was based on standard noncompartmental pharmacokinetic methods. […] The maximum observed plasma concentration (Cmax) was determined by visual estimation from the data plot. Area under the plasma concentration vs. time curve from 0 to the time of the last measurable concentration (AUC) was calculated by the linear trapezoidal method. Elimination half-life (t1/2) was calculated as ln(2)/ke, where ke is the elimination rate constant determined by linear regression of the last three analytically measured points on the plasma concentration vs. time curve."}, "[3]": {"system": "New Zealand White rabbits", "conditions": "rabbit, in vivo", "experimental": "Thirty six New Zealand White rabbits between 5 and 6 months of age were used for this study. […] Each group contained 12 rabbits, 6 males and 6 females. Rabbits were dosed in their right eye on study days 1, 2, 8, 15, 22 and 29 using a trans-scleral application system. Dosing was accomplished by filling the system with the appropriate test or control article and placing the applicator in full contact with the sclera of the right eye for 5 minutes. The contralateral eye served as an untreated control. Intraocular pressure (IOP) was measured via rebound tonometry in both eyes prior to dosing and within 5 minutes thereafter on days 1, 15 and 29. IOP was also measured the day after dosing on days 16 and 30 and in the recovery animals on day 43."}, "[4]": {"conditions": "rabbit, in vivo, 1 mg; cited from earlier work"}, "[5]": {"system": "New Zealand White (NZW) rabbits", "conditions": "rabbit, in vivo", "experimental": "This procedure was repeated 24 hours later with the shorter application duration of 5 minutes.\nEight (4 male and 4 female) NZW rabbits, 5-6 months old, were assigned to two groups according to the following study design:"}, "[6]": {"system": "New Zealand White rabbits", "conditions": "rabbit, in vivo", "remark": "listed apart in the source", "experimental": "For the ocular toxicity study, there were four groups. […] The total exposure was 12 doses over the period of 12 weeks. Clinical observations were performed on weekdays, and before and after each dosing. Following the final observations (i.e., one week after the last dose), the rabbits were sacrificed and the eyes were processed for histological evaluation.\nOne drop of sterile proparacaine hydrochloride (a local anesthetic) was put on the eye (to be treated) 5 minutes before dose administration. […] The position of the device was checked to ensure that the active agent matrix was in immediate contact with the white part of the eye but not the cornea. Digital timers were used for accurate application times (i.e., 5, 10, or 20 minutes). After the given application duration, the applicator was carefully removed from the eye.\nAll animals (both left and right eyes) were examined by indirect ophthalmoscopy of the cornea, conjunctiva, anterior chamber, vitreous, posterior chamber, and sclera. One to two drops each of phenylephrine hydrochloride and cyclopentolate hydrochloride were used as mydriatics. Observations on the anterior and posterior segments of the eye were made, graded, and recorded. A modified McDonald-Shadduck scale was used for grading eye irritation and ocular toxicity.\nThe histopathological processing and evaluation were conducted at Colorado Histo-Prep (Fort Collins, Colo.). Briefly, a central cut of the eye globe was taken, as well as two cuts on either side of the central cut (calottes) at trim. For each eye, the central cut was placed into one cassette, and the two calottes were placed together into a separate cassette. The tissues were processed, embedded in paraffin wax, sectioned by microtome, and stained. Histopathology of the tissues was conducted on slides stained with hematoxylin and eosin. A pathologist who evaluated the tissues had no knowledge of the specific pharmacologic activity or formulation of the test articles. Standardized toxicological pathology criteria and nomenclature for the rabbit were used to categorize microscopic tissue changes."}, "[7]": {"conditions": "human, in vivo, 1 mg; cited from earlier work"}, "[8]": {"assay": "in vivo", "conditions": "rabbit", "experimental": "as §1, §2, §3, §4"}},
  "note": "“And” between values parts separate entries of the source, which are not always exact repeats. Equal entries are not always repeated. Where two headings read alike, the source gives them in different places.",
  "data": [
    {"smiles": "C[C@@H]1C[C@H]2[C@@H]3CCC4=CC(=O)C=C[C@]4(C)[C@@]3(F)[C@@H](O)C[C@]2(C)[C@@]1(O)C(=O)CO", "note": "[DEX, dexamethasone]", "values": [
      {"measurement": "concentration that can inhibit prostaglandin release", "setting": "[1]", "result": "10^−7 M and ~40 ng/mL"},
      {"measurement": "Tmax of DEX in plasma", "setting": "[2]; rabbit", "result": 30, "unit": "min"}
    ]},
    {"smiles": "C[C@@H]1C[C@H]2[C@@H]3CCC4=CC(=O)C=C[C@]4(C)[C@@]3(F)[C@@H](O)C[C@]2(C)[C@@]1(O)C(=O)COP(=O)(O)O", "note": "[DSP, dexamethasone sodium phosphate]", "values": [
      {"measurement": "IOP effects related to dosing", "setting": "[3]", "result": "no IOP effects related to dosing"},
      {"measurement": "Cmax after IV injection", "setting": "[4]", "result": 786, "unit": "ng/mL"},
      {"measurement": "half-life of the drug in the rabbit", "setting": "[2]", "result": "120 to 180", "unit": "min"},
      {"measurement": "IOP increase (mild effect)", "setting": "[5]; both, New Zealand White", "result": "5-8 mmHg"},
      {"measurement": "IOP increase (absolute value) compared to control eye change, immediately after application", "setting": "[5]; male, New Zealand White", "result": 2, "unit": "mmHg"},
      {"measurement": "IOP increase (absolute value) compared to control eye change, immediately after treatment", "setting": "[5]; male, New Zealand White", "result": 8, "unit": "mmHg"},
      {"measurement": "change in IOP within one hour after treatment", "setting": "[5]; male, New Zealand White", "result": 4, "unit": "mmHg"},
      {"measurement": "effect on the IOP of the treated eye (statistical analysis)", "setting": "[5]", "result": "no effect"},
      {"measurement": "time for IOP to return to a normal range after treatment", "setting": "[5]", "result": "within one half hour"},
      {"measurement": "time for IOP to return to below baseline after treatment", "setting": "[5]", "result": "within one half hour"},
      {"measurement": "time for IOP to return to normal after treatment", "setting": "[5]", "result": "within one half hour"},
      {"measurement": "corneal surface covered by corneal haze lesion", "setting": "[6]; New Zealand White, 4 weeks", "result": "about 40%"},
      {"measurement": "typical conjunctival injection score immediately after treatment", "setting": "[6]; New Zealand White, 12 weeks", "result": "1 or <1"},
      {"measurement": "Ocular Histopathology", "setting": "[6]", "result": "NSF"},
      {"measurement": "histopathology finding", "setting": "[6]", "result": "mild chronic inflammation at the limbus of the cornea"},
      {"measurement": "histopathology of eyes", "setting": "[6]", "result": "morphologically normal"},
      {"measurement": "nature of ocular findings (conjunctival injection, discharge, corneal haze) in treated eyes", "setting": "[6]", "result": "transient and mild in nature"},
      {"measurement": "Cmax after IV injection", "setting": "[7]", "result": 10.5, "unit": "ng/mL"},
      {"measurement": "Tmax", "setting": "[8]", "result": 5, "unit": "min"}
    ]}
  ]
}
